A word on the half-life: it is the time needed for the level to fall by half in the phase considered. A lower half-life goes with fast loss. In general, solubility refers to the concentration that dissolves in the medium under given conditions.

This note sets out measurements from patent US11629164B2, “Gemcitabine prodrugs” (NuCana plc, priority 2014, dated 2023).

Structures are written as SMILES. In brackets after ≈: the same amount, converted by molar mass. Read-outs that look alike come from different tables or passages of the source. Bounds are passed on as bounds.

Data set [1] is described as follows: aqueous solubility of NUC-1031 (background statement). In kind it is physicochemical. The conditions noted are these: regardless of salt content or pH.
The nature of data set [2]: metabolic stability in pooled human cryopreserved hepatocyte suspension, HPLC-MS/MS. In kind it is in vitro ADME. The conditions noted are these: both sexes, human, hepatocytes. The procedure:
(§1) The clearance and bioavailability of most medicines are strongly influenced by their first-pass metabolism in the liver. It is possible to estimate the relative hepatic “metabolic stability” in vitro by incubating compounds with cryopreserved hepatocytes and determining the initial vs. the final amount of the test compound in the incubation mixtures.
(§2) The following procedure is an HPLC-MS/MS assay using pooled human cryopreserved hepatocyte suspension.
(§3) Human hepatocytes: mixed gender and pool of 10
(§4) Final cell density: 1 million (10^6) viable cells/mL
(§5) Pooled cryopreserved hepatocytes are thawed, washed, and resuspended in Krebs-Heinslet buffer (pH 7.3). The reaction is initiated by adding the test compound (1 μM final concentration) into cell suspension and incubated in a final volume of 100 μL on a flat-bottom 96-well plate for 0 minute and 120 minutes, respectively, at 37° C./5% CO2. The reaction is stopped by adding 100 μL of acetonitrile into the incubation mixture. Samples are then mixed gently and briefly on a plate shaker, transferred completely to a 0.8 mL V-bottom 96-well plate, and centrifuged at 2550×g for 15 minutes at room temperature. Each supernatant (150 μL) is transferred to a clean cluster tube, followed by HPLC-MS/MS analysis on a Thermo Electron triple-quadrupole system.
(§6) This assay was modified for half-life determination. In this case, the sampling time points are 0, 30, 60, 90, and 120 minutes.
(§7) Four reference compounds (1 μM) were tested simultaneously with the test compounds.
(§8) Samples are analyzed via (RP)HPLC-MS/MS using selected reaction monitoring (SRM). The HPLC conditions consist of an HP1100 binary pump with autosampler, a C-12 mixed-mode, 2×20 mm column, and a gradient.
(§9) Peak areas corresponding to the test compound are recorded by HPLC-MS/MS. The metabolic stability, expressed as percent of the test compound remaining, is calculated by comparing the peak areas of the test compound at 2 hours to time zero. In case of half-life determination, the half-life is estimated from the slope of the initial linear range of the logarithmic curve of the test compound remaining (%) vs. time, assuming first order kinetics.

Data set [3] in a line: solubility in pharmaceutically acceptable solvent systems, HPLC assay of filtrate. The data set is classed as physicochemical. The procedure: The solubilities of NUC-1031 and its diastereoisomers were determined in a range of pharmaceutically acceptable solvent systems. The protocol adopted was as follows:
A small volume, 1-2 mL, of each solvent system was prepared and a weight of the compound in question was added. The solutions were stirred for approximately 4 hours and then […] membrane filtered. The concentration of the compound in question in the filtrate was then determined by HPLC assay.

For data set [4], the system named is pooled human cryopreserved hepatocytes. Description: metabolic stability in pooled human cryopreserved hepatocyte suspension, HPLC-MS/MS. The data set is classed as in vitro ADME. The conditions noted are these: reference compounds, 1 μM. The procedure:
as §1, §2, §3, §4, §5, §6, §7, §8, §9

Setting [5] is: 10% mixtures of polar organic solvents in water.
Where [6] appears, read: 50% PEG400 by volume in water, aqueous with cosolvent or surfactant or cyclodextrin, thermodynamic from solid, PEG400 (50%) by volume in water, read-out: Solubility.
Setting [7] is: 50% ethanol by volume in water, aqueous with cosolvent or surfactant or cyclodextrin, thermodynamic from solid, ETHANOL (50%) by volume in water, read-out: Solubility.
Setting [8] is: 50% propylene glycol by volume in water, aqueous with cosolvent or surfactant or cyclodextrin, thermodynamic from solid, PROPYLENE GLYCOL (50%) by volume in water, read-out: Solubility.
[9] abbreviates: mixtures of polar organic solvents with water.

On to `C[C@H](NP(=O)(OC[C@H]1O[C@@H](n2ccc(N)nc2=O)C(F)(F)C1O)Oc1ccccc1)C(=O)OCc1ccccc1` (stereo partly shown) [NUC-1031], for which, in data set [1], the “solubility in water” value is listed as “essentially insoluble in water”. Also, the half-life at 1 μM worked out at 72.9 min in data set [2] (pH 7.3, Half-Life 1st); 72.5 min in data set [2] (pH 7.3, Half-Life 2nd); 82.2 min in data set [2] (pH 7.3, Half-Life 3rd). Besides, the solubility in data set [3] (organic solvent or mixture, thermodynamic from solid, solvent DMSO, read-out: Assay (solubility)) is above 217000 µg/mL; in data set [3] (organic solvent or mixture, thermodynamic from solid, solvent NMP, read-out: Assay (solubility)), above 207000 µg/mL; in data set [3] (organic solvent or mixture, thermodynamic from solid, solvent PEG 400, read-out: Assay (solubility)) it was 385000 µg/mL (≈ 663 mM); in data set [3] (organic solvent or mixture, thermodynamic from solid, solvent Propylene glycol, read-out: Assay (solubility)), 371000 µg/mL (≈ 639 mM). Further, the Appearance entry in data set [3] (solvent DMSO) is “Clear solution”; in data set [3] (solvent Ethanol) it was “Solubilised quickly, after 30”; in data set [3] (solvent Glycerol), “API evident”; in data set [3] (solvent NMP), “Clear solution”; in data set [3] (solvent PEG 400) it was “Precipitation evident after 120”; in data set [3] (solvent Propylene glycol), “Precipitation evident after 30”.

In the case of `C[C@H](N[P@](=O)(OC[C@H]1O[C@@H](n2ccc(N)nc2=O)C(F)(F)C1O)Oc1ccccc1)C(=O)OCc1ccccc1` (stereo partly drawn) [compound 3, 2′-Deoxy-2′,2′-difluoro-D-cytidine-5′-O-[phenyl(benzyloxy-L-alaninyl)]-(S)-phosphate], the half-life at 1 μM in data set [2] (pH 7.3, Half-Life 1st) amounted to 40.5 min; in data set [2] (pH 7.3, Half-Life 2nd), 36.5 min; in data set [2] (pH 7.3, Half-Life 3rd), 35 min. The solubility in data set [3] (10% PEG400 by volume in water, aqueous with cosolvent or surfactant or cyclodextrin, thermodynamic from solid, PEG400 (10%) by volume in water, read-out: Solubility) was 460 µg/mL (≈ 0.792 mM); in data set [3] (10% ethanol by volume in water, aqueous with cosolvent or surfactant or cyclodextrin, thermodynamic from solid, ETHANOL (10%) by volume in water, read-out: Solubility), 270 µg/mL (≈ 0.465 mM); in data set [3] (setting [5]) it was “significantly improved solubility”; in data set [3] (10% propylene glycol by volume in water, aqueous with cosolvent or surfactant or cyclodextrin, thermodynamic from solid, PROPYLENE GLYCOL (10%) by volume in water, read-out: Solubility), 230 µg/mL (≈ 0.396 mM); in data set [3] (setting [6]), 32100 µg/mL (≈ 55.4 mM); in data set [3] (setting [7]), 34800 µg/mL (≈ 59.9 mM). The solubility in data set [3] (setting [8]) was 11300 µg/mL (≈ 19.4 mM); in data set [3] (setting [9]), “sufficient solubility”. Moreover, the “difference in solubility between (S)-epimer and (R)-epimer” value in data set [3] (in a number of the solvent mixtures tested) is “over 100 fold”.

Take `C[C@H](N[P@@](=O)(OC[C@H]1O[C@@H](n2ccc(N)nc2=O)C(F)(F)[C@@H]1O)Oc1ccccc1)C(=O)OCc1ccccc1` [compound 4, 2′-deoxy-2′,2′-difluoro-D-cytidine-5′-O-[phenyl(benzyloxy-L-alaninyl)]-(R)-phosphate]: the half-life at 1 μM in data set [2] (pH 7.3, Half-Life 1st) was 472 min; in data set [2] (pH 7.3, Half-Life 2nd), above 120 min; in data set [2] (pH 7.3, Half-Life 3rd), above 120 min; in data set [2] (pH 7.3, Half-Life Mean), above 120 min. Also, the “solubility” value is “substantially insoluble” in data set [3] (setting [5]); 270 µg/mL (≈ 0.465 mM) in data set [3] (setting [6]); 690 µg/mL (≈ 1.19 mM) in data set [3] (setting [7]); 110 µg/mL (≈ 0.189 mM) in data set [3] (setting [8]); “substantially insoluble” in data set [3] (setting [9]).

For `CCN(CC)CCN1C(=O)CN=C(c2ccccc2F)c2cc(Cl)ccc21` [flurazepam, reference compound], the “stability with human hepatocytes” value in data set [4] was “relatively unstable”.

Consider `C=CCN1CC[C@]23c4c5ccc(O)c4O[C@H]2C(=O)CC[C@@]3(O)[C@H]1C5` [naloxone, reference compound], for which, in data set [4], the “stability with human hepatocytes” value is on record as “relatively unstable”.
